1 compound from patent US20160206610A1, “METHODS FOR TREATING AND/OR PREVENTING EMESIS AND/OR NAUSEA INCLUDING ACUTE AND/OR DELAYED NAUSEA AND/OR ACUTE EMESIS AND/OR DELAYED EMESIS” (priority 2015, published 2016) can be followed below.

The structures appear in SMILES notation.

A short description of the data set: Fine particle fraction by Next Generation Impactor at 15 LPM (nebulizer solution). Type of data set: physicochemical. The note with it: Example 6: nebulizer solution, 0.125% w/w palonosetron chloride in sodium chloride/citrate buffer. The text has this: For a nebulizer solution for inhalation, a 0.125% w/w solution of palonosetron chloride is formulated in a pharmaceutically acceptable buffer for inhalation (0.85% sodium chloride, 0.062% sodium citrate, 0.019% citric acid in water). If tested through a Next Generation Impactor at 15 LPM, the fine particle fraction of palonosetron <4.7 microns is anticipated to be >20%.

Turning to `O=C1c2cccc3c2[C@H](CCC3)CN1[C@@H]1CN2CCC1CC2` [palonosetron], the “fine particle fraction <4.7 microns” value is given as over 20%.
